We go through 20 molecules from patent US20250092017A1, “2-PIPERIDYL OR 2-PYRAZOLYL SUBSTITUTED PYRIMIDINE COMPOUND SERVING AS EGFR INHIBITOR” (SUZHOU PUHE BIOPHARMA CO., LTD., priority 2022, published 2025).

The target of assay [1] is EGFR (wild-type) (Homo sapiens, UniProt P00533). In words: MSA (Mobility Shift Assay) kinase activity, EGFR wild type. Type of assay: biochemical. As to conditions: read-out: EGFR wt/ IC50/nM. As for the experimental part: (§1) The MSA (Mobility Shift Assay) method was used to detect the effects of small molecule inhibitors on the kinase activity of EGFR wild type and its mutants (EGFR^wt, EGFR-L858R, EGFR-L858R-T790M-C797S, EGFR-L858R-C797S).
(§2) 10 μL of kinase solution at 2.5 times the final concentration was added to the compound wells and positive control Max wells; 10 μL of 1x kinase buffer was added to the negative control Min wells. The mixture was centrifuged at 1000 rpm for 30 seconds, and the reaction plate was shaken to mix the solution well and then incubated at room temperature for 10 minutes. A mixed solution of ATP and kinase substrate at 5/3 times the final concentration was prepared in 1x kinase buffer. 15 μL of a mixed solution of ATP and substrate at 5/3 times the final concentration was added to initiate the reaction. The 384-well plate was centrifuged at 1000 rpm for 30 seconds, and shaken to mix the solution well and then incubated at room temperature for the corresponding time. 30 μL of stop detection solution was added to stop the kinase reaction, and the mixture was centrifuged at 1000 rpm for 30 seconds, and then to mixed well by shaking. The conversion rate was read using Caliper EZ Reader.
(§3) wherein: Conversion %_sample is the conversion rate reading of the sample; Conversion %_min is the mean of the negative control wells, representing the conversion rate reading of the wells without enzyme activity; Conversion %_max is the mean of the positive control wells, representing the conversion rate reading of the wells without compound inhibition.
(§4) The log (inhibitor) vs. response —Variable slope of the analysis software GraphPad Prism 5 was used to fit the dose-effect curve, where the log value of the concentration was used as the X-axis and the percentage inhibition rate was used as the Y-axis, to obtain the IC50 value of each compound on the enzyme activity.
(§5) The calculation formula is Y=Bottom+(Top-Bottom)/(1+10^((Log IC50−X)*Hill Slope))

Assay [2] deals with EGFR (L858R/T790M/C797S) (Homo sapiens, UniProt P00533, C797S/L858R/T790M). In words: MSA (Mobility Shift Assay) kinase activity, EGFR-L858R-T790M-C797S. It is filed as biochemical. As for the experimental part: as §1, §2, §3, §4, §5
Assay [3] concerns the target EGFR (L858R/C797S) (Homo sapiens, UniProt P00533, C797S/L858R). In words: MSA (Mobility Shift Assay) kinase activity, EGFR-L858R-C797S. Type of assay: biochemical. How it is done: as §1, §2, §3, §4, §5
The target in assay [4] is EGFR (L858R) (Homo sapiens, UniProt P00533, L858R). The experiment in a line: MSA (Mobility Shift Assay) kinase activity, EGFR-L858R. Type of assay: biochemical. As for the experimental part:
as §1, §2, §3, §4, §5

Assay [5] concerns the target Ba/F3-FL-EGFR-L858R-T790M-C797S (Homo sapiens, UniProt P00533, T790M/C797S/L858R, cells depend on it). The experiment in a line: CellTiter-Glo proliferation, Ba/F3-FL-EGFR-L858R-T790M-C797S. Type of assay: cell-based. The conditions noted are these: 72 hours, read-out: Ba/F3-FL-EGFR-L858R-T790M-C797S IC50/nM. As for the experimental part: (§6) Promega CellTiter-Glo reagent was used to detect the effects of small molecule inhibitors on the proliferation of five Ba/F3 cell lines (Ba/F3-FL-EGFR, Ba/F3-FL-EGFR-L858R, Ba/F3-FL-EGFR-L858R-T790M-C797S, Ba/F3-TEL-EGFR-L858R-C797S and Ba/F3-FL-EGFR-del19-C797S).
(§7) The cell lines were cultured in an incubator at 37° C. and 5% CO2. Cells were passaged regularly and cells in the logarithmic phase were used for plating. 95 μL of cell suspension was added to each well of the cell plate, and culture medium without cells (containing 0.1% DMSO) was added to the Min control wells. Substance addition for compound detection cell plate: 5 μL of 20× compound working solution was added to the cell culture plate as shown in the table below. 50 μL of DMSO-cell culture medium mixture was added to the Max control, with the final DMSO concentration of 0.1%. 5 μL of DMSO-cell culture medium mixture was added to the Max control. The final DMSO concentration was 0.1%.
(§8) The compounds to be tested were added as per the table below
(§9) Cell viability was detected by CellTiter-Glo luminescence assay. Data analysis:
(§10) The cell proliferation inhibition rate (Inhibition Rate) data was processed using the following formula: […]
(§11) wherein: RLUDrug represents the relative luminescence unit of the cells with the addition of drug, RLUMin represents the luminescence unit of the culture medium, and RLUMax represents the relative luminescence unit of the cells with the addition of DMSO.
(§12) The inhibition rates corresponding to different concentrations of compounds were calculated in EXCEL, and then the inhibition rate curve was plotted using GraphPad Prism software and related parameters including the maximum and minimum inhibition rates of cells and IC50 values were calculated.
Background: In ATP-based viability assays light output follows the ATP content of the culture.

Assay [6] addresses Ba/F3-FL-EGFR-L858R (Homo sapiens, UniProt P00533, L858R, cells depend on it). The experiment in a line: CellTiter-Glo proliferation, Ba/F3-FL-EGFR-L858R. Type of assay: cell-based. As to conditions: 72 hours, read-out: Ba/F3-FL-EGFR-L858R IC50/nM. As for the experimental part:
as §6, §7, §8, §9, §10, §11, §12

For assay [7], the target named is T1, Ba/F3-TEL-EGFR-L858R-C797S (Homo sapiens, UniProt P00533, C797S/L858R, cells depend on it).
T1 construct: fused on or other part: N-terminal TEL (ETV6) oligomerising part fused to the EGFR intracellular/kinase part; P41212 (Transcription factor ETV6)
The experiment in a line: CellTiter-Glo proliferation, Ba/F3-TEL-EGFR-L858R-C797S. It is filed as cell-based. The conditions noted are these: 72 hours, read-out: Ba/F3-TEL-EGFR-L858R-C797S IC50/nM. How it is done: as §6, §7, §8, §9, §10, §11, §12

For assay [8], the system named is Ba/F3-FL-EGFR-del19-C797S. The experiment in a line: CellTiter-Glo proliferation, Ba/F3-FL-EGFR-del19-C797S. It is filed as cell-based. As to conditions: 72 h, proliferation, 72 hours, CellTiter-Glo; read-out: Ba/F3-FL-EGFR-del19-C797S IC50/nM. As for the experimental part: as §6, §7, §8, §9, §10, §11, §12
Assay [9] addresses T2, Ba/F3-FL-EGFR (Homo sapiens, UniProt P00533).
T2 construct: FL read as full length
The experiment in a line: CellTiter-Glo proliferation, Ba/F3-FL-EGFR. Type of assay: cell-based. As to conditions: 72 hours, read-out: Ba/F3-FL-EGFR IC50/nM. As for the experimental part: as §6, §7, §8, §9, §10, §11, §12

Sequence of Ba/F3-FL-EGFR-L858R-T790M-C797S (P00533 whole entry T790M/C797S/L858R): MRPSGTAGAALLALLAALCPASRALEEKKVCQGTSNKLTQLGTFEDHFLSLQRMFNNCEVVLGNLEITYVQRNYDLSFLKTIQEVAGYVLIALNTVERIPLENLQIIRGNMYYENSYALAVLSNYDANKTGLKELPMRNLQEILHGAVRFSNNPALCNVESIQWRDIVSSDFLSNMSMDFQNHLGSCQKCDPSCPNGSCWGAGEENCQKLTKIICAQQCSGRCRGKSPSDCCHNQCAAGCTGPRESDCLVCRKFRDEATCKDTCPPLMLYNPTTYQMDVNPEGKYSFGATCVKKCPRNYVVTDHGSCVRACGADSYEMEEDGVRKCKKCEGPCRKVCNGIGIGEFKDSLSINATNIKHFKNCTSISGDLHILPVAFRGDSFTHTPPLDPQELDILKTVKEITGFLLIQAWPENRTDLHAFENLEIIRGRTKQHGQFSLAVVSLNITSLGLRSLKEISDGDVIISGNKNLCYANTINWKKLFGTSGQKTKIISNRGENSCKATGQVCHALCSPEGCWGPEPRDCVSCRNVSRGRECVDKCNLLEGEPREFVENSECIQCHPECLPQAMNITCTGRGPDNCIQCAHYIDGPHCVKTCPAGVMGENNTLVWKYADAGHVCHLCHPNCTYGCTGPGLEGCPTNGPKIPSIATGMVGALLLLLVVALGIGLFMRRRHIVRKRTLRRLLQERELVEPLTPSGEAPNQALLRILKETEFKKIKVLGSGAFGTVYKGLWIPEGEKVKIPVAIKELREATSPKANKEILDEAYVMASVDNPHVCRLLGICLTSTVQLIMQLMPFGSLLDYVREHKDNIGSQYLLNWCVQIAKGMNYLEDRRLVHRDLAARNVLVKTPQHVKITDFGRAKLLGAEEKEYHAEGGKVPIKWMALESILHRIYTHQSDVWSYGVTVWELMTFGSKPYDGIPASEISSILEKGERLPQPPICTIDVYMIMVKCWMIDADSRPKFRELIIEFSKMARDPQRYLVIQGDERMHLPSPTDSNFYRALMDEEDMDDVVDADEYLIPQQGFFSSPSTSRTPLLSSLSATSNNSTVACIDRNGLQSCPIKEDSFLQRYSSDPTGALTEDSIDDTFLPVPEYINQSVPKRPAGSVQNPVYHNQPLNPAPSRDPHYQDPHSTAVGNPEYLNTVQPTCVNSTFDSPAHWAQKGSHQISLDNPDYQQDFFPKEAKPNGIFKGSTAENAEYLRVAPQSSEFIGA
Sequence of EGFR (L858R) (P00533 25-1210 L858R): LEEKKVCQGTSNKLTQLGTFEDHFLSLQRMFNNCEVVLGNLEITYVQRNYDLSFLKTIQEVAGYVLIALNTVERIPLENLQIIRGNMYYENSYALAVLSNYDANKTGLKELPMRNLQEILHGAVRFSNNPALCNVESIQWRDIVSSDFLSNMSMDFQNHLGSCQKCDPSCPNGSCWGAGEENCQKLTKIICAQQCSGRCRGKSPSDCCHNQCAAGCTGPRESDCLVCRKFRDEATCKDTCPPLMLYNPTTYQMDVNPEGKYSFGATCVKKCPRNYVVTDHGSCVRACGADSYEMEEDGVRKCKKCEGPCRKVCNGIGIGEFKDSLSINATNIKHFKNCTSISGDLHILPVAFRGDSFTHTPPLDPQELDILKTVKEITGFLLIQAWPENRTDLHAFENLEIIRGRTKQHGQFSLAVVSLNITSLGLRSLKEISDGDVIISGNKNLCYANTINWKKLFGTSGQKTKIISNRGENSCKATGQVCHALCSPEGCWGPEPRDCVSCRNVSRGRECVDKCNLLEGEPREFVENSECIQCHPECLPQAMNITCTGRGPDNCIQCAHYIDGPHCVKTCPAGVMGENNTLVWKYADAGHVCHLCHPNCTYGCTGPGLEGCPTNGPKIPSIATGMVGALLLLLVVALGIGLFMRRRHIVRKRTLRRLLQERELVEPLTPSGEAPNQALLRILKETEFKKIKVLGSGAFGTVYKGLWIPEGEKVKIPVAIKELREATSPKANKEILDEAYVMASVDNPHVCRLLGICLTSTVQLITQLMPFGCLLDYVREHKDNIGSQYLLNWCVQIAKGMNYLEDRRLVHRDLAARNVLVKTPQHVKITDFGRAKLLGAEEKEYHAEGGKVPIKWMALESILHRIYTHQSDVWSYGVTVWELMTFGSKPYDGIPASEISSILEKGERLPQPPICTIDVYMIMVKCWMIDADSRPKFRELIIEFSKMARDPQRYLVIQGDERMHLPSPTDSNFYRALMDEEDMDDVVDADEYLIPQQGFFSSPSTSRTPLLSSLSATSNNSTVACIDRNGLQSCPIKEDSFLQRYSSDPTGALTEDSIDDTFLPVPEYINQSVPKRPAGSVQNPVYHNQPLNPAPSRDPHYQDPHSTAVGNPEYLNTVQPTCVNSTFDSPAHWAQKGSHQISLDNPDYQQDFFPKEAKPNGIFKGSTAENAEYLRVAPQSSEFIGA
T1 sequence (P00533 whole entry C797S/L858R, the tested form may be a part): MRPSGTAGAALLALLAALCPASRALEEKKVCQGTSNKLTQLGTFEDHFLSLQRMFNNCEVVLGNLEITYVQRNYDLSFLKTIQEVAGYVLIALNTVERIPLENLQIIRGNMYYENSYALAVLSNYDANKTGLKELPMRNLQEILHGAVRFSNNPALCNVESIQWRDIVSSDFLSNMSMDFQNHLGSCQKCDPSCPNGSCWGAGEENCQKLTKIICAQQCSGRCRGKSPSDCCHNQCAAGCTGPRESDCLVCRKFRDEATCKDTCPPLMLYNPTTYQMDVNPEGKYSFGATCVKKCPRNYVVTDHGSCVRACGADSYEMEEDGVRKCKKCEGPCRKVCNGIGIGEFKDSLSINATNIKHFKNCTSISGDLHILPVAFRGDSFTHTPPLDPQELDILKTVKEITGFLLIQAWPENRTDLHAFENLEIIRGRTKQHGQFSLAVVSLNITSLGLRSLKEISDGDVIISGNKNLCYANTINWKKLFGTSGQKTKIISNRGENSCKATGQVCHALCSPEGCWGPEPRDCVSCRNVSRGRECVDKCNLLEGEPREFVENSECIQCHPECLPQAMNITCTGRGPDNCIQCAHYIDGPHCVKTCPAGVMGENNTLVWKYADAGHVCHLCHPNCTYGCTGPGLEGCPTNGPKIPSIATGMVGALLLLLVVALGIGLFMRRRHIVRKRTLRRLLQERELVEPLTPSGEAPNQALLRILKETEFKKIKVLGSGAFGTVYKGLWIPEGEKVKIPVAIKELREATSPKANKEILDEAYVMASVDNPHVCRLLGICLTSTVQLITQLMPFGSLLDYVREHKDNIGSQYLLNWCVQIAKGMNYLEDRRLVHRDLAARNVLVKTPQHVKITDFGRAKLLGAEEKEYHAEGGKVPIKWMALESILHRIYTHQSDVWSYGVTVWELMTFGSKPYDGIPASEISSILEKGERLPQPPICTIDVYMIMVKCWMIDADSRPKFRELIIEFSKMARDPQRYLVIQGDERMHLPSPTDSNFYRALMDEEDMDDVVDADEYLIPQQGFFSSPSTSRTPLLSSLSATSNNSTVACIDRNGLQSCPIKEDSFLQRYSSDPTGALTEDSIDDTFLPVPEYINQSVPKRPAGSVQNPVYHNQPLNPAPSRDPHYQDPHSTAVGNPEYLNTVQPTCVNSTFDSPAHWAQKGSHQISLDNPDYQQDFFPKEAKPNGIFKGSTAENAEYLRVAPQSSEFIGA
Sequence of Ba/F3-FL-EGFR-L858R (P00533 whole entry L858R): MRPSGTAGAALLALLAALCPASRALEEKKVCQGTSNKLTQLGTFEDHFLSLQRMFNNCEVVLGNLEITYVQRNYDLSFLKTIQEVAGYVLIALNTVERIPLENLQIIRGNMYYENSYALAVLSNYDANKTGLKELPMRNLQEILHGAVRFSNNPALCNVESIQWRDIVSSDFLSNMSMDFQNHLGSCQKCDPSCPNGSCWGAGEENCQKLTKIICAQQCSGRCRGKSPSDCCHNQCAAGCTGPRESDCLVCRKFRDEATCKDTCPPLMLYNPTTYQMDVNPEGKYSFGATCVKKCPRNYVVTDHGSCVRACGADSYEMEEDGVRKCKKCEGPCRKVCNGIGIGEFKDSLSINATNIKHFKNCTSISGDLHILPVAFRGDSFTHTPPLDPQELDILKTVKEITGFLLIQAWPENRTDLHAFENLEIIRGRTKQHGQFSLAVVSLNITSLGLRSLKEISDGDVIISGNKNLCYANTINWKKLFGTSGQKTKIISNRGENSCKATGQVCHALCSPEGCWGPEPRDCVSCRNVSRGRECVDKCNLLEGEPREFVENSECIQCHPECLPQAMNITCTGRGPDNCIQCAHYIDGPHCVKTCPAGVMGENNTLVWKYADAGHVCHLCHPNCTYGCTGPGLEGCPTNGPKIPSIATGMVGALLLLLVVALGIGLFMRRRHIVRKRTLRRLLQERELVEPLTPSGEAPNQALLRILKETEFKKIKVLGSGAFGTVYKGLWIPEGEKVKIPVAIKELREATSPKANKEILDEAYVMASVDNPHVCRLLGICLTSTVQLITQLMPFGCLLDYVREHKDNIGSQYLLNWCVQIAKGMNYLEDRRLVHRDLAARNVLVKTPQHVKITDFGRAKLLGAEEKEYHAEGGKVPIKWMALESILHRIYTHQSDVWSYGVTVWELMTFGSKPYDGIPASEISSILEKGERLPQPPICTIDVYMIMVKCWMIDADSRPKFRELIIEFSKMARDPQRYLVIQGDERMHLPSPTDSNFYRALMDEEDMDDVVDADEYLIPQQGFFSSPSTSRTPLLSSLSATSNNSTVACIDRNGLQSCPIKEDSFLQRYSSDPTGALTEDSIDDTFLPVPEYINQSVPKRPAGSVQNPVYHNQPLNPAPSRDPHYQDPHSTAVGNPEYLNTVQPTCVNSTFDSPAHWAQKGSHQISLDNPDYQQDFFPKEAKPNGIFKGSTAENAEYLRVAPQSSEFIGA

Regarding `CC(C)c1ccc(N2CC(NS(=O)(=O)c3cccnc3)C2)c2cnc(Nc3ccnc(N4CCC(O)C(F)C4)n3)cc12` (centres unmarked) [Compound P28], the IC50 was 64 nM in [1], 0.34 nM in assay [2], 27 nM in assay [3] and 13 nM in assay [4].

As to `CC(C)c1ccc(N2CC(c3cccnc3)C2)c2cnc(Nc3ccnc(N4CCC(O)C(F)C4)n3)cc12` (centres unmarked) [Compound P12], the IC50 in assay [1] is > 100 nM; in assay [2] it was 1.9 nM; in assay [3], > 100 nM; in assay [4], > 100 nM.

As to `CC(C)c1ccc(N2CC(NS(=O)(=O)C3CC3)C2)c2cnc(Nc3ccnc(N4CCC(O)C(F)C4)n3)cc12` (centres unmarked) [Compound P23], the IC50 in assay [1] was 33.8 nM; in [2], 0.11 nM; in [3], 8.2 nM; in assay [4], 7.8 nM.

For `CC(C)c1ccc(N2CC(CS(C)(=O)=O)C2)c2cnc(Nc3ccnc(-c4cnn(S(=O)(=O)C5CCCCC5)c4)n3)cc12` [Compound H9], the IC50 in assay [1] was > 100 nM; in assay [2], 6.3 nM; in assay [3], 12 nM.

With `CC(C)c1ccc(N2CC(c3cscn3)C2)c2cnc(Nc3ccnc(N4CCC(O)C(F)C4)n3)cc12` (centres unmarked) [Compound P18], the IC50 in assay [1] is > 100 nM; in [2] it was 9.9 nM; in assay [3] it was > 100 nM.

As for `CC(C)c1ccc(N2CC(CS(C)(=O)=O)C2)c2cnc(Nc3ccnc(-c4cnn(S(=O)(=O)C(F)(F)F)c4)n3)cc12` [Compound H8], the IC50 in assay [1] was > 100 nM; in assay [2] it was 3.5 nM; in assay [3], 6.4 nM.

For the molecule `COC1CCN(c2nccc(Nc3cc4c(cn3)c(N3CC(CS(C)(=O)=O)C3)cc(=O)n4C(C)C)n2)CC1F` (centres unmarked) [Compound P24], the GI50 in [5] is 57 nM; in assay [6] it was 128 nM; in assay [7], 63 nM; in assay [9], 3440 nM. The IC50 in assay [1] was 41.2 nM; in assay [8], 283 nM; in assay [2] it was 0.13 nM; in assay [3], 10.4 nM.

As for `CCn1cc(-c2nccc(Nc3cc4c(C(C)C)ccc(N5CC(CS(C)(=O)=O)C5)c4cn3)n2)cn1` [Compound H27], the GI50 in assay [5] was 322 nM; in assay [6] it was 49 nM; in assay [7], 21 nM; in assay [9], > 10000 nM. Also, the IC50 in [8] stood at 53 nM.

As to `CC(=O)NC1CN(c2ccc(C(C)C)c3cc(Nc4ccnc(N5CCC(O)C(F)C5)n4)ncc23)C1` (centres unmarked) [Compound P35], the GI50 in assay [5] turned out to be 1660 nM; in assay [6], 2520 nM; in assay [7], 1690 nM; in [9], 8760 nM. The IC50 in assay [8] came to 3120 nM.

Regarding `CCCS(=O)(=O)N(C)[C@H]1CN(c2ccc(C(C)C)c3cc(Nc4ccnc(-c5cnn(S(=O)(=O)C6CC6)c5)n4)ncc23)[C@@H]1C` [Compound H33], the GI50 in assay [5] is 13 nM; in [6] it was 14 nM; in [7], 5.9 nM; in assay [9], 202 nM. Also, in assay [8], the IC50 is 7.1 nM.

In the case of `CC(C)c1ccc(N2CC(NS(=O)(=O)N(C)C)C2)c2cnc(Nc3ccnc(N4CCC(O)C(F)C4)n3)cc12` (centres unmarked) [Compound P27], the GI50 in assay [5] was 64 nM; in assay [6], 169 nM; in [7], 74 nM; in assay [9] it was 2200 nM. For the same molecule, in assay [8], the IC50 came out at 226 nM.

In the case of `CC(C)c1ccc(N2CC(CS(C)(=O)=O)C2)c2cnc(Nc3ccnc(-c4cnn(S(=O)(=O)C5CCOC5)c4)n3)cc12` (centres unmarked) [Compound H24], the GI50 in [5] came to 94 nM; in assay [6] it was 42 nM; in assay [7], 12 nM; in assay [9], 458 nM. Also, the IC50 in assay [8] amounted to 20 nM.

As to `COC1CCN(c2nccc(Nc3cc4c(C(C)C)ccc(N5CC(NS(=O)(=O)C6COC6)C5)c4cn3)n2)CC1F` (centres unmarked) [Compound P37], the GI50 was 34 nM in assay [5], 83 nM in [6], 33 nM in assay [7] and 1140 nM in [9]. The IC50 in assay [8] is 339 nM.

For `COC1CCN(c2nccc(Nc3cc4c(C(C)C)ccc(N5CC(N(C)S(=O)(=O)C(F)(F)F)C5)c4cn3)n2)CC1F` (centres unmarked) [Compound P50], the GI50 amounted to 720 nM in assay [5], 1890 nM in assay [6], 542 nM in [7] and 6620 nM in assay [9]. For the same molecule, the IC50 in assay [8] was determined as 3510 nM.

Take `CC(C)c1cc(C#N)c(N2CC(CS(C)(=O)=O)C2)c2cnc(Nc3ccnc(N4CCC(O)C(F)C4)n3)cc12` (centres unmarked) [Compound P16]: the IC50 in assay [1] is > 100 nM; in [2], 0.28 nM; in [3], 24.1 nM.

On to `CC(C)c1ccc(N2C[C@H](CS(C)(=O)=O)[C@H]2C)c2cnc(Nc3ccnc(-c4cnn(S(=O)(=O)CCOC5CC5)c4)n3)cc12` [Compound H31], for which the GI50 in assay [5] worked out at 64 nM; in assay [6], 50 nM; in [7], 55 nM; in assay [9] it was 503 nM. Moreover, the IC50 in [8] is 39 nM.

In the case of `CCCS(=O)(=O)C[C@H]1CN(c2ccc(C(C)C)c3cc(Nc4ccnc(-c5cnn(S(=O)(=O)C6CC6)c5)n4)ncc23)[C@@H]1C` [Compound H34], the GI50 stood at 73 nM in assay [5], 65 nM in assay [6], 28 nM in [7] and 656 nM in [9]. In addition, the IC50 in assay [8] was 37 nM.

Consider `CCS(=O)(=O)N(C)[C@H]1CN(c2ccc(C(C)C)c3cc(Nc4ccnc(N5CCC(OC)C(F)C5)n4)ncc23)[C@@H]1C` (some centres unmarked) [Compound P43], for which the GI50 in assay [5] was found to be 5.6 nM; in [6], 36 nM; in assay [7], 9.8 nM; in assay [9], 593 nM. Further, in [8], the IC50 amounted to 142 nM.

Regarding `CCN(C1CN(c2ccc(C(C)C)c3cc(Nc4ccnc(N5CCC(OC)C(F)C5)n4)ncc23)C1)S(C)(=O)=O` (centres unmarked) [Compound P31], the GI50 is 18 nM in [5], 86 nM in assay [6], 19 nM in assay [7] and 1460 nM in assay [9]. In assay [8], the IC50 was determined as 295 nM.

With `CC(C)c1ccc(N2CC(CS(C)(=O)=O)C2)c2cnc(Nc3ccnc(-c4cnn(C)c4)n3)cc12` [Compound H29], the GI50 in [5] is 235 nM; in assay [6] it was 91 nM; in assay [7], 34 nM; in assay [9] it was 739 nM. Also, the IC50 in assay [8] is 59 nM.
